Key:
[1] = Adsorption/precipitation of SA or AEA in 10 wt % aqueous fly ash or cement slurries at pH 12.5; assay type: physicochemical; details: initial SA 3 mM
Protocol: Adsorption/Precipitation of Sacrificial Agents (SA) or Air Entrainment Agents (AEA) in 10 wt % Aqueous Fly Ash Slurries at pH 12.5:
(§1) The pH of the solutions were adjusted to 12.5 with NaOH.
Adsorption/Precipitation in FA or Cement Slurries: In this protocol, aqueous slurries containing 10 wt % FA or cement were prepared as described above, except that in this case, the cement was added directly into a solution of the SA or AEA in the following proportions: 3.0 g cement or FA, and 27 g of 3 mM sacrificial agent, or 27 g of 1050 mg/l AEA; the latter were prepared in the same way as in the precipitation test above. The residual (soluble) SA or AEA content in the solution was also determined by UV or COD.

[2] = Precipitation in slurry extract or leachate; assay type: physicochemical; details: pH 12.5, entries in parentheses
Protocol: as §1
Precipitation in slurry extract or leachate: To perform this test, FA or cement leachate were prepared in advance, by filtering two liters of a 10 wt % FA, or cement, slurry in 0.03N NaOH which had been left to stand under slow agitation for 30 min; 2.5 g of the filtrate solution was mixed with 22.5 g of the SA or AEA solution in a 50 ml polypropylene centrifuge tube; the latter was shaken vigorously in an orbital shaker (Eberbach Corporation) for 30 min at room temperature, centrifuged for 5 min and then the supernatant solution was filtered (0.45 μm). The SA or AEA content of the solution was determined using an Ultraviolet-Visible (UV) spectrometer or by COD (Chemical Oxygen Demand) measurement.
Entries in parentheses: % precipitation when reacted with solutions extracted from the fly ash slurries (Results in Table 5).

[3] = Paste air entrainment, Minimum air protocol
Protocol: (§2) Preparation of pastes: Pastes were prepared by pouring 400 g of cementitious powder in the 350-400 g of solution (water and additives) in a vessel (8.4 cm dia,×14.5 cm height) while gently stirring with a spatula; the exact quantity of water depends on the selected W/B ratio (see below); rapid hand mixing was continued for 1 minute, followed by intense stirring at 25° C. during 2 min using a hand-held mixer (BRAUN model MR400). The level of air entrained is dependent on the mode of utilisation of the mixer, namely the height of the mixer from the bottom of the vessel and the length of the mixing stroke; the following protocols were adopted.
Minimum air protocol: The BRAUN mixer is positioned at 1.0 inch from the bottom of the mixing vessel and the up-down motion of the mixer is limited to a 1.0 inch displacement; this provided ‘minimum air’ entrained air levels and is later referred to as ‘Minimum air protocol’ (Results reported in Table 6, col. 1 and Table 7).
(§3) Fluidity measurements: For all air entrainment measurements, the initial fluidity of the paste (without additives) was controlled using the ‘mini-slump’ procedure widely used for paste and grouts. In this protocol, a portion of the paste was transferred into the min-slump cone (a 2¼″ high, 1½″ bottom diameter, ¾″ top diameter cone); excess paste was skimmed-off with a straight; the cone was then raised and the spread diameter of the paste was recorded (average of two measurements). The fluidity is measured at 10 minutes after mixing. The paste is returned to the batch and reserved for subsequent AE measurements. The fluidity of the paste (without SA and AEA) is adjusted by changing the amount of water (water/cementitious ratio) which yields a spread diameter of 115±5 mm. The latter is monitored regularly.
(§4) Air entrainment measurements: For air entrainment measurements, a portion of the paste was transferred to overfill a Plexiglas cylinder (3¾ inches height, 2 inches interior diameter), which was then levelled flush to the top of the cylinder with a straight edge. The mass of the filled cylinder, minus the weight of the empty cylinder, is then recorded and used to calculate the amount of air according to the following formula: […]
(§5) This procedure was carried out at three times at 30 min. intervals (6, 36 and 66 min); the paste was let to stand at rest between measurements, and was stirred gently by hand for one minute prior to the subsequent air entrainment measurements.
Typical mixture compositions for air entrainment measurements in pastes containing a single additive using ‘Minimum air protocol’ (results shown in Table 6, col. 1): […]

[4] = Paste air entrainment, Maximum air protocol; details: PCA cement paste; 0.0125% SA or AEA alone; Maximum air protocol
Protocol: as §2, §3, §4, §5
Other combinations of air entrainment agents and sacrificial agents were prepared as stock solutions following the procedure outlined above, adjusting the weights of the various components to achieve the desired component ratios.

[5] = 10 wt % fly ash B1 (LOI 4.36%) slurry, Air 30/Air 40 0.105 wt %
[6] = 10 wt % fly ash C1, class C (LOI 1.62%) slurry, Air 30/Air 40 0.105 wt %
[7] = 10 wt % fly ash C2 (LOI 3.32%) slurry
[8] = 10 wt % fly ash M1 (LOI […]) slurry, Air 30/Air 40 0.105 wt %
[9] = 10 wt % fly ash M2 (LOI 5.34%) slurry, Air 30/Air 40 0.105 wt %
[10] = 10 wt % fly ash M3 (LOI 11.33%) slurry, Air 30/Air 40 0.105 wt %
[11] = 10 wt % fly ash N (LOI 0.30%) slurry
[12] = solution extracted from 10 wt % fly ash B1 (LOI 4.36%) slurry
[13] = solution extracted from 10 wt % fly ash C1, class C (LOI 1.62%) slurry
[14] = solution extracted from 10 wt % fly ash C2 (LOI 3.32%) slurry
[15] = solution extracted from 10 wt % fly ash M1 (LOI […]) slurry
[16] = solution extracted from 10 wt % fly ash M2 (LOI 5.34%) slurry
[17] = solution extracted from 10 wt % fly ash M3 (LOI 11.33%) slurry
[18] = solution extracted from 10 wt % fly ash N (LOI 0.30%) slurry

SMILES	Adsorption (wt % Adsorbed) [1, 5] [wt %]	Adsorption (wt % Adsorbed) [1, 6] [wt %]	Adsorption (wt % Adsorbed) [1, 7] [wt %]	Adsorption (wt % Adsorbed) [1, 8] [wt %]	Adsorption (wt % Adsorbed) [1, 9] [wt %]	Adsorption (wt % Adsorbed) [1, 10] [wt %]	Adsorption (wt % Adsorbed) [1, 11] [wt %]	Precipitation (wt % precipitated) [2, 12] [wt %]	Precipitation (wt % precipitated) [2, 13] [wt %]	Precipitation (wt % precipitated) [2, 14] [wt %]	Precipitation (wt % precipitated) [2, 15] [wt %]	Precipitation (wt % precipitated) [2, 16] [wt %]	Precipitation (wt % precipitated) [2, 17] [wt %]	Precipitation (wt % precipitated) [2, 18] [wt %]	also measured
NCc1ccccc1 [BA, Benzylamine]	25	25	20	13	23	23	16	12	11	14	11	15	13	11	
O=C([O-])c1cccc2ccccc12.[Na+] [NA, 1-Naphthoic acid sodium salt]	9	61	4	90	9	12	20	0	0	0	80	0	0	0	Air entrained ([3]; 50:50 fly ash B1 (LOI 4.36%):PCA paste, 0.1 wt % Air 30 alone or with 0.05 wt % of the SA): 4 vol %; Air entrained ([3]; 50:50 fly ash C1 (LOI 1.62%):PCA paste, 0.1 wt % Air 30 alone or with 0.05 wt % of the SA): 5 vol %; Air entrained ([3]; 50:50 fly ash D (LOI […]):PCA paste, 0.1 wt % Air 30 alone or with 0.05 wt % of the SA): 6 vol %; Air entrained ([3]; 50:50 fly ash M1 (LOI […]):PCA paste, 0.1 wt % Air 30 alone or with 0.05 wt % of the SA): 6 vol %; Air entrained ([3]; 50:50 fly ash M2 (LOI 5.34%):PCA paste, 0.1 wt % Air 30 alone or with 0.05 wt % of the SA): 4 vol %; Air entrained ([3]; 50:50 fly ash M3 (LOI 11.33%):PCA paste, 0.1 wt % Air 30 alone or with 0.05 wt % of the SA): 5 vol %; Air entrained ([3]; 50:50 fly ash R (LOI […]):PCA paste, 0.1 wt % Air 30 alone or with 0.05 wt % of the SA): 4 vol %; Air entrained ([3]; PCA cement paste, 0.1% SA or AEA alone, Minimum air protocol): 0 vol %; Average of air entrained ([3]; over the fly ash:PCA pastes of Table 7, 0.1 wt % Air 30 alone or with 0.05 wt % of the SA): 5%; Air entrained [4]: 0 vol %

Reference: US7892350B2, “Sacrificial agents for fly ash concrete” (Boral Material Technologies Inc., priority 2003, dated 2011)
